For one compound, IC50 results are on record in patent US5364864A, “1,4-disubstituted piperidines, their preparation and their application in therapy” (priority 1991, dated 1994).

This test addresses acetylcholinesterase (Homo sapiens, UniProt P22303). Put plainly: Inhibition of acetylcholinesterase activity (method of Ellman et al.). Format: biochemical. (In Ellman's method for cholinesterases, released thiocholine reacts with DTNB.)

Usually IC50 stands for the concentration that gives 50% inhibition. The low end stands for greater potency in that assay, the high end for weaker potency in that assay.

acetylcholinesterase, sequence (P22303 32-614): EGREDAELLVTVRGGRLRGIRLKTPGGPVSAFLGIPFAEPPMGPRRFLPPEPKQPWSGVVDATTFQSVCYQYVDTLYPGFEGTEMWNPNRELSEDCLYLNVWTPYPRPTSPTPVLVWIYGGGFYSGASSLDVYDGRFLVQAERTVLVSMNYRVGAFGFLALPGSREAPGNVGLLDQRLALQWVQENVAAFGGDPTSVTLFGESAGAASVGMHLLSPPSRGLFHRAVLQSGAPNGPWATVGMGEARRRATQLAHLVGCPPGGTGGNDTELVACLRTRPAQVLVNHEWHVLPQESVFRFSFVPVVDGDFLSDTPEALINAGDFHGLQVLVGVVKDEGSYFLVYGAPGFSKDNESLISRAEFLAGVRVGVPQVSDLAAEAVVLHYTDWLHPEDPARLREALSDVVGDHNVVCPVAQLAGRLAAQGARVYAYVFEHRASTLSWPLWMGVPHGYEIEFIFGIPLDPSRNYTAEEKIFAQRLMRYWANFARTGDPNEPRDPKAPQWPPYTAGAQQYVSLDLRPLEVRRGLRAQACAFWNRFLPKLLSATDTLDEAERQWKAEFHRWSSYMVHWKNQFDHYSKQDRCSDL

As to `S=C(NCCC1CCN(Cc2ccccc2)CC1)Nc1ccccc1` [Compound 1, 1-Phenyl-3-[2-(1-benzyl-4-piperidyl)ethyl]thiourea], the IC50 is 0.32 µM.
